This series concerns the target Voltage-gated inwardly rectifying potassium channel KCNH2 (Homo sapiens, UniProt Q12809). In words: Electrophysiological recordings were made from a Chinese Hamster Lung cell line stably expressing the full length hERG channel. Single cell ion currents were measured in the perforated patch clamp configuration (100 ug/mL amphoterocin) at room temperature using an IonWorks Quattro instrument. The internal solution contained 140 mM KCl, 1 mM MgCl2, 1 mM EGTA and 20 mM HEPES and was buffered to pH 7.3. […] This sequence was repeated 5 times at a frequency of 0.25 Hz. […] Compounds were incubated for 6-7 min prior to a second measurement of the hERG signal using an identical pulse train.

Voltage-gated inwardly rectifying potassium channel KCNH2, sequence (Q12809 whole entry): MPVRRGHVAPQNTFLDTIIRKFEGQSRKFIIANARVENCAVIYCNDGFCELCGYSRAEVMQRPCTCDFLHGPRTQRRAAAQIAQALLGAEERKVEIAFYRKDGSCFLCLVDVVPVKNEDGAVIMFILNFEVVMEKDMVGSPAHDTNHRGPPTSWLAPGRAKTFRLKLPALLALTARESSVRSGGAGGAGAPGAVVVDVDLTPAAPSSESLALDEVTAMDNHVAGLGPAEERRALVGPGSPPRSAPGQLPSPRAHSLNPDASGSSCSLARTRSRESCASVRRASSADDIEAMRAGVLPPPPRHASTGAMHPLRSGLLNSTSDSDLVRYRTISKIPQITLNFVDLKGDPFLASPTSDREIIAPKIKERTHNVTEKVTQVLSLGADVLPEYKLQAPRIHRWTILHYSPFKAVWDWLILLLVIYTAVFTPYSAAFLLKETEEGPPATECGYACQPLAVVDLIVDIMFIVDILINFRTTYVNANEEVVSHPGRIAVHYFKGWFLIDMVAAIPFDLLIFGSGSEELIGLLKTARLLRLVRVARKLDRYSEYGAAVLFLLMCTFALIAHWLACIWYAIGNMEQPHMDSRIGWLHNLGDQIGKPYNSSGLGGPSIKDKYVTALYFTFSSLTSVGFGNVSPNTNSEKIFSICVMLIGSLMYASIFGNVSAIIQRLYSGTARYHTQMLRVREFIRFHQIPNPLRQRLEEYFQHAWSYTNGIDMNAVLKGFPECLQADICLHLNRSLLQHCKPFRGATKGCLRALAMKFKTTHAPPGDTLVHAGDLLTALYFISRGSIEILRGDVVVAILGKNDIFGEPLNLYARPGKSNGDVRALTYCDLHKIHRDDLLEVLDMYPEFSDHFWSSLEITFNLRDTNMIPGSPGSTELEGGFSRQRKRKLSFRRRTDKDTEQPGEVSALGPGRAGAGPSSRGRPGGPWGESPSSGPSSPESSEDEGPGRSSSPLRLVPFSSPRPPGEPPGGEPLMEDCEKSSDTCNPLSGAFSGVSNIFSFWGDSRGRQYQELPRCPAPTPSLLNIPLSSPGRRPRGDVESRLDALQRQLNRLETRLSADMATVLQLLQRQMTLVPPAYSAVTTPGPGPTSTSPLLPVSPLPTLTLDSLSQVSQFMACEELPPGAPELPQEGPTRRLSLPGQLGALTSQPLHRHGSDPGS

By IC50 is commonly meant the midpoint of a concentration-inhibition curve. Regarding `Clc1ccc(-n2c(-c3ccncc3)nc3ccncc32)cc1`, the IC50 result was “in the range around 5.5 µM”.

(Values after ChEMBL document CHEMBL5727342, “Imidazo[4,5-C]pyridine and pyrrolo[2,3-C]pyridine derivatives as SSAO inhibitors” (2018).)
